Assay results published in patent US20240226211A9, “SEAWEED EXTRACTS, ISOLATED COMPOUNDS, AND METHODS OF TREATMENT” (University of Florida Research Foundation, Incorporated, priority 2017, published 2024).
Entries after “also recorded” stand apart in the source; their conditions may differ.

Legend:
[1] = tested on: ARE-luciferase reporter (human NQO1-ARE) in LNCaP cells; test: ARE-luc reporter assay in LNCaP cells; assay type: cell-based; details: LNCaP cell line
From the text: The ARE-luciferase reporter construct (ARE-luc) contains the core sequence of human NQO1-ARE1. The mock plasmid (pcDNA3-mRFP) was purchased from Addgene (plasmid 13032). The following plasmids were reported by Zhang et a/.2003 [Zhang, D. D., and Hannink, M. (2003) Distinct cysteine residues in Keap1 are required for Keap1-dependent ubiquitination of Nrf2 and for stabilization of Nrf2 by chemopreventive agents and oxidative stress. Mol. Cell. Biol. 23, 8137-8151]. The Keap1-CBD plasmid carries the entire open reading frame (ORF) of human Keap1 fused to the chitin binding domain (CBD) of the Bacillus circulans chitinase A1 gene upstream of the Keap1 stop codon. […]
An ARE-luciferase reporter plasmid and CMV-GFP plasmid (to monitor transfection efficiency) were co-transfected into a human androgen-sensitive prostate cancer cell line, LNCaP (6×10^4 cells/well), and a human neuroblastoma cell line, IMR-32 (3×10^4 cells/well), using Fugene® HD (Roche Diagnostics) in 96-well format. […] After 24 hours of incubation, cells were treated with extracts from Cymopolia barbata, a negative control (DMSO, 1%, v/v), and a positive control ([…] sulforaphane, SF, and tert-butylhydroquinone, tBHQ, respectively.) 24 hours post-treatment, luciferase activity was detected using BriteLite detection reagent (PerkinElmer). […]

Nrf2 [2] = test: RNA interference of Nrf2 in IMR-32 cells, NQO1 induction; assay type: cell-based, human; details: IMR-32, 48 h RNAi then 24 h treatment
Protocol: The media was then carefully aspirated and replaced with a transfection mixture composed of siRNAs (50 nM) and siLentFect™ lipid transfection reagent (Bio-Rad Laboratories) in fresh medium. […] The siRNAs, siGENOME Non-Targeting siRNA Pools and siGENOME SMARTpool (human NFE2L2), were purchased from Dharmacon.
In order to determine whether NQO1 induction is Nrf2 dependent, IMR-32 cells were transfected with siRNA targeting Nrf2 or non-targeting siRNA. After 48 hours of RNAi of Nrf2, cells were treated with the samples or the vehicle control for 24 hours.

Nrf2 [3] = test: Nuclear translocation of NRF2 in IMR-32 cells; assay type: cell-based, human
Protocol: IMR-32 cells were seeded in 6-well format at 2×10^6 cells/well and incubated at 37° C. overnight. The cells were treated with a solvent control (DMSO, 1%, v/v) or serial dilutions of isolated compounds or extracts for the indicated periods of time. The cytosolic and nuclear extracts were separated and prepared using a commercial kit, NE-PER Nuclear and Cytoplasmic Extraction Reagents (Thermo Scientific). Briefly, cells were gently washed once with 200 μL at DPBS before being resuspended in 1 mL DPBS, transferred to a pre-chilled tube, and pelleted at 500×g for 3 min at 4° C. The supernatant was removed and cells were resuspended in ice-cold CER I containing 1% cOmplete, EDTA-free Protease Inhibitor Cocktail (v/v, Roche Diagnostics) by vigorous vortexing. After addition of ice-cold buffer CER II, the samples were vortexed vigorously for 5 s and incubated on ice for 1 min twice before being pelleted at 16,000×g for 5 min at 4° C. The supernatant was transferred to a fresh tube and used as cytosolic stock. The pellet was washed twice by adding 75 μL ice-cold DPBS, flicking, centrifuging, and removing the supernatant before resuspension in ice-cold buffer NER supplemented with 1% cOmplete, EDTA-free Protease Inhibitor Cocktail (v/v). […] Subsequently, the cellular and nuclear extracts were analyzed by immunoblot.

iNOS = iNOS transcript levels in RAW264.7 macrophage cells; assay type: cell-based, mouse; details: 10 μM Compound 1, IFN-γ
Protocol: (§1) The RNeasy Mini Kit (Qiagen) was used to collect total RNA from cells, while for mouse tissue, TRIzol reagent (Invitrogen) was used. In each case, total RNAs (2 μg) were reverse-transcribed into cDNAs, which were used as templates for TaqMan gene expression assay (Applied Biosystems) and detected using the 7300 Real-Time PCR System (Applied Biosystems). Each qPCR sample was tested in triplicate as a 25 μL total reaction volume (12.5 μL of Taqman 2× universal master mix, 1.25 μL of a 20× TaqMan gene expression assay probe, 1 μL of the above cDNA, and 10.25 μL of RNase-free sterile water). The qPCR method was designed as following: 50° C. for 2 min, 95° C. for 10 min, and 40 cycles of 95° C. for 15 s and 60° C. for 1 min. Endogenous controls used included GAPDH for IMR-32 cells and β-actin to normalize for RAW264.7 cells and mouse tissues.
RAW264.7 cells were seeded in 6-well plates (8×10^5 cells/well) and incubated at 37° C. overnight.

[4] = tested on: PGE2 production in RAW264.7 cells; test: PGE2 assay in RAW264.7 cells; assay type: cell-based, mouse; details: RAW264.7, IFN-γ
Protocol: RAW264.7 cells were seeded into a 96 well format at 4×10^4 cells/well and incubated overnight at 37° C. Cells were treated with a solvent control (DMSO, 1%, v/v) or serial dilutions of isolated compounds or extracts for 1 h before the addition of IFN-γ (10 ng/mL). […] The experiment was performed using the standard manufacturer's protocol.

[5] = tested on: NO production in MEF cells; test: NO assay in MEF cells; assay type: cell-based, murine; details: stimulated with IFN-γ and TNF-α
Protocol: RAW264.7 cells (2×10^4 cells/well), wild-type (8×10^3 cells/well), Nrf2−/−(7×10^3 cells/well), and Keap1−/−(5×10^3 cells/well) MEF were seeded into 96-well format. Cells were pretreated for 1 h with a solvent control (DMSO, 1%, v/v) or serial dilutions of isolated compounds or extracts before addition of LPS (1 μg/mL) or IFN-γ (10 ng/mL). […] In each case, 50 μL of the media was combined with 50 μL Griess Reagent (Promega). Absorbance was measured at 540 nm and compared with a calibration curve generated using the provided […] standard.

[6] = tested on: ARE-driven and NFκB driven genes; test: Gene transcription in wildtype zebrafish embryos; assay type: in vivo
Nqo1 = Nqo1 transcript levels in mouse organs after oral gavage; assay type: in vivo; details: mice, particularly digestive tract
Protocol: as §1
(§2) The experiments were approved by the Institutional Animal Care & Use Committee at the University of Florida. Groups of 5-10 wild type male mice (C57BL/6J) were used for each treatment type. The mice were maintained under approved standard conditions. […] The tissues were harvested immediately, frozen on dry ice, and kept at −80° C. until analyzed.
(§3) A low dose and a high dose of cymopol (1) or the NP extract were administered to 4-week-old male mice via oral gavage.

Hmox1 = Hmox1 transcript levels in mouse organs after oral gavage; assay type: in vivo; details: mice, particularly digestive tract
Protocol: as §1, §2, §3

[7] = tested on: large intestine transcriptome; test: RNAseq of mouse large intestine; assay type: in vivo
From the text: Briefly, 1st strand cDNA is primed by a modified N6 primer (the SMART N6 CDS primer), then base-pairs with these additional nucleotides, creating an extended template. The reverse transcriptase then switches templates and continues transcribing to the end of the oligonucleotide, resulting single-stranded cDNA contains sequences that are complementary to the SMARTer oligonucleotide. The SMARTer anchor sequence and the N6 sequence serve as universal priming sites for DNA amplification by PCR for 10 cycles. […] Libraries were quantitated by Bioanalyzer and qPCR (Kapa Biosystems, catalog number: KK4824). Finally, the libraries were pooled equal molar concentration and sequenced by Illumina 2X75 NextSeq 500.
In preparation for sequencing, barcoded libraries were sized on the bioanalyzer, quantitated by QUBIT and qPCR (Kapa Biosystems, catalog number: KK4824). Individual samples were pooled equimolarly at 4 nM. […] For RNA seq, 50-100 million reads provided sufficient depth for transcriptome analysis.
The web-based analysis tool, IPA, was used to further investigate the effect of the cymopols on the large intestine.

Bacillus cereus = test: Preliminary antibacterial testing; assay type: cell-based

SMILES: CC(C)=CCC/C(C)=C/Cc1cc(O)c(Br)cc1O [Compound 1, (E)-2-bromo-5-(3,7-dimethylocta-2,6-dien-1-yl)benzene-1,4-diol]
- activation of ARE-luc [1]: most active
- induction of NQO1 transcript levels in siNrf2 transfected cells (Nrf2 [2]): inhibited in siNrf2 transfected cells
- time after which increased nuclear NRF2 levels were seen (Nrf2 [3]; IMR-32 cells): 18 h
- nuclear translocation of NRF2 (Nrf2 [3]; IMR-32 cells, 0, 1, 6 or 18 hours): induced nuclear translocation of NRF2
- lowering of induced iNOS transcript levels (iNOS): > 96%
- production of pro-inflammatory PGE2 [4]: effectively reduced the production
- NO production in wild-type MEFs [5]: minimized NO production; also recorded: restore basal level of NO
- anti-inflammatory effects in Nrf2−/− and Keap1−/− MEFs [5]: did not demonstrate appreciable anti-inflammatory effects
- ARE-driven gene transcription [6]: increase in ARE-driven gene transcription
- select NFκB driven genes [6]: decrease in select NFκB driven genes
- transcript levels of Nqo1 in various organs (Nqo1): elevated transcript levels of Nqo1
- transcript levels of Hmox1 in various organs (Hmox1): elevated transcript levels of Hmox1
- PI3K/Akt/mTOR pathway ([7]; large intestine RNAseq, IPA): greatly affected
- Wnt/β-catenin or Sonic Hedgehog signalling ([7]; large intestine RNAseq, IPA): no notable difference
- transcript levels of TNFα ([7]; large intestine, low dose): down-regulated
- antibacterial activity (Bacillus cereus): inhibited
